In brackets after ≈: the same amount, converted by molar mass.
Columns and labels:
[1] = Cytotoxicity against human HeLa cells assessed as reduction in cell viability after 3 days by ATPlite assay
[2] = Metabolic stability in human liver microsomes assessed as compound metabolized after 15 mins; type: ADME, Microsome; settings: read-out: Drug metabolism
[3] = Clearance in Sprague-Dawley rat at 2 mg/kg, iv administered as single dose; type: ADME, organism-based; settings: in vivo
[4] = Volume of distribution at steady state in Sprague-Dawley rat at 2 mg/kg, iv administered as single dose; type: ADME, organism-based; settings: in vivo, read-out: Vdss
[5] = Cmax in Sprague-Dawley rat at 10 mg/kg, po administered as single dose; type: ADME, organism-based; set-up: dose 10 mg/kg, route oral; settings: in vivo
[6] = AUC in Sprague-Dawley rat at 10 mg/kg, po administered as single dose; type: ADME, organism-based; settings: in vivo
[7] = Absolute oral bioavailability in Sprague-Dawley rat at 10 mg/kg administered as single dose; type: ADME, organism-based; settings: in vivo
[8] = Ratio of AUC (0 to last) in lung to plasma of Sprague-Dawley rat at 10 mg/kg, po administered as single dose; type: ADME, organism-based; settings: lung and plasma, read-out: Ratio AUC
[9] = Metabolic stability in rat liver microsomes assessed as compound metabolized after 15 mins; type: ADME, Microsome; settings: read-out: Drug metabolism
[10] = Protein binding in human plasma assessed as unbound fraction; type: ADME, cell-free
[11] = Clearance in Sprague-Dawley rat at 2 mg/kg, iv administered as single dose relative to liver blood flow; type: ADME, organism-based; settings: in vivo
[12] = Metabolic stability in dog liver microsomes assessed as compound metabolized after 15 mins; type: ADME, Canis lupus familiaris, Microsome; settings: read-out: Drug metabolism
[13] = Clearance in Sprague-Dawley rat plasma at 2.5 mg/kg, iv; type: ADME, organism-based
[14] = Ratio of AUC (0 to last) in lung to plasma of Sprague-Dawley rat at 2.5 mg/kg, iv or 10 mg/kg, po; type: ADME, organism-based; settings: lung and plasma, read-out: Ratio AUC
[15] = Oral bioavailability in Sprague-Dawley rat at 10 mg/kg; type: ADME, organism-based; settings: in vivo
[16] = Clearance in dog plasma at 1 mg/kg, iv; type: ADME, organism-based, Canis lupus familiaris
[17] = Oral bioavailability in dog at 5 mg/kg; type: ADME, organism-based, Canis lupus familiaris; settings: in vivo
[18] = tested on: Respiratory syncytial virus; assay: Antiviral activity against RSV Long infected in po dosed cotton rat model assessed as reduction in viral titer in broncho alveolar lavage fluid pretreated for 1 hr followed by viral infection measured after 4 days by plaque reduction assay; type: functional, organism-based; settings: for EC50: human respiratory syncytial virus
[19] = tested on: Respiratory syncytial virus; assay: Antiviral activity against RSV Long infected in po dosed cotton rat model assessed as reduction in viral titer in lung lavage fluid pretreated for 1 hr followed by viral infection measured after 4 days by plaque reduction assay; type: functional, organism-based; settings: for EC50: human respiratory syncytial virus
[20] = Clearance in dog plasma at 1 mg/kg, iv relative to liver blood flow; type: ADME, organism-based, Canis lupus familiaris; settings: in vivo
Cytochrome P450 3A4 = Cytochrome P450 3A4 (Homo sapiens, UniProt P08684); assay: Time-dependent inhibition of CYP3A4 in human liver microsomes using testosterone as substrate; type: ADME
CYP3A4 = CYP3A4 (Homo sapiens, UniProt P08684); assay: Time-dependent inhibition of CYP3A4 in human liver microsomes assessed as ratio of IC50 in presence and absence of NADPH using testosterone as substrate; type: ADME; settings: probe testosterone, read-out: Ratio IC50
[21] = Aqueous solubility of the compound; type: physicochemical; settings: buffer

Cytochrome P450 3A4, sequence (P08684 whole entry): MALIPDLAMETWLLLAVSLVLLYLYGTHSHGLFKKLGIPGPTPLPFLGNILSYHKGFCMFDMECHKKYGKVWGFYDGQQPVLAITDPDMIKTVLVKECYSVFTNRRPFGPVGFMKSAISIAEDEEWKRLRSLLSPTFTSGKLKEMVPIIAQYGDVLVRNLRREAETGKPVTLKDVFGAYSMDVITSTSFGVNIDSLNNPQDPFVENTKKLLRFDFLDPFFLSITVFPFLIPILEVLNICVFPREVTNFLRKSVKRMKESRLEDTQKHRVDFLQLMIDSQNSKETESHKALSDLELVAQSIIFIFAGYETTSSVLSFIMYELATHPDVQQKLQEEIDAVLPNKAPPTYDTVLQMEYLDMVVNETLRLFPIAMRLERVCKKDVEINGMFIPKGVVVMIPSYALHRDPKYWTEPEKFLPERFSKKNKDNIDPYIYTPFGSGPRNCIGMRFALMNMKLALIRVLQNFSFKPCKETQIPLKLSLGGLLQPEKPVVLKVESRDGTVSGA
CYP3A4, sequence (P08684 whole entry): as above

metabolised at 0.25 h [2] [%]	metabolised at 0.25 h [9] [%]	fraction unbound [10]	metabolised at 0.25 h [12] [%]	clearance [13] [mL/min/kg]	Kp [14]	bioavailability [15] [%]	clearance [16] [mL/min/kg]	bioavailability [17] [%]	CL [20] [%]	SMILES	CC50 at 72 h [1] [µM]	Activity [18]	EC50 [18] [µg/mL]	Activity [19]	EC50 [19] [µg/mL]	further results
21	80	0.472								O=c1n(Cc2cc3cnccc3n2CCCC(F)(F)F)c2cnccc2n1C1CC1	> 50					clearance [3]: 75 mL/min/kg; Vd [4]: 3.3 L/kg; Cmax [5]: 532 ng/mL; AUC [6]: 545 ng·h/mL; bioavailability [7]: 28%; Kp [8]: 11; CL [11]: > 100%
19	74	0.008	56	31.7	2.5	32	14.3	26	50	COc1ccc(-n2c(=O)n(Cc3cc4cc(Cl)ccc4n3CCCC#N)c3cnccc32)cc1OC	> 50	Dose-dependent effect	0.18 (≈ 0.359 µM)	Dose-dependent effect	0.157 (≈ 0.313 µM)	
1	60	0.06	28	65	3.5	42	8.5			CS(=O)(=O)CCCn1c(Cn2c(=O)n(CC(F)(F)F)c3ccncc32)cc2cc(Cl)ccc21 [RILEMATOVIR]	> 50	Dose-dependent effect	0.075 (≈ 0.15 µM)	Dose-dependent effect	0.081 (≈ 0.162 µM)	TDI (Cytochrome P450 3A4): Not Active
18										CS(=O)(=O)CCCn1c(Cn2c(=O)n(C3CC3)c3ccncc32)cc2cc(Cl)ccc21	> 50					IC50 shift (CYP3A4): 18
9										CS(=O)(=O)c1ccc(-n2c(=O)n(Cc3cc4cc(Cl)ccc4n3CCCC#N)c3cnccc32)cc1	> 50					solubility [21]: Insoluble
20	40	0.005	96	16.2	1.3	86	24.8	9	90	COc1ccc(-n2c(=O)n(Cc3cc4cc(Cl)ccc4n3CCCC#N)c3cnccc32)cc1	> 50	Dose-dependent effect	0.499 (≈ 1.06 µM)	Dose-dependent effect	0.121 (≈ 0.256 µM)	

— ChEMBL document CHEMBL4619758, “Discovery of 3-({5-Chloro-1-[3-(methylsulfonyl)propyl]-1H-indol-2-yl}methyl)-1-(2,2,2-trifluoroethyl)-1,3-dihydro-2H-imidazo[4,5-c]pyridin-2-one (JNJ-53718678), a Potent and Orally Bioavailable Fusion Inhibitor of Respiratory Syncytial Virus” (J Med Chem, 2020)
